Experimental data reported in patent US20200291100A1, “TREATMENT OF AGE-RELATED AND MITOCHONDRIAL DISEASES BY INHIBITION OF HIF-1 ALPHA FUNCTION” (President and Fellows of Harvard College, priority 2012, published 2020).

How the values were obtained:
PGC-1α/β KO cells = assay: Pyruvate supplementation of PGC-1α/β KO cells with or without DMOG, mitochondrial-encoded gene expression; assay type: cell-based, mouse; settings: DMOG added to pyruvate-treated cells
Description: FIGS. 21A-21N provide additional data related to the content of FIG. 14. FIG. 21A depicts HIF-1α target genes (PGK-1, Glut1, PDK1 and Vegfa) expression in gastrocnemius of WT and SIRT1 KO mice. Relative expression values were normalized to WT mice (n=5). FIG. 21B depicts hypoxia response element activity in primary myoblasts isolated from WT and SIRT1 KO mice and treated with or without DMOG. Relative luciferase activity was normalized to WT cells (n=6, *p<0.05 versus WT). FIG. 21C depicts a representative immunoblot of HIF-1a and Tubulin in PGC-1α/β KO myotubes treated with adenovirus overexpressing SIRT1 or empty vector as well as treatment with DMSO or with HIF stabilizing compound DMOG. FIG. 21D depicts NAD+/NADH ration measured in primary WT myoblasts treated with either 10 mM pyruvate, 10 mM lactate or vehicle for 24 h (n=4). […] FIG. 21J depicts mitochondrial DNA content analyzed by qPCR in control, HIF-1α DPA or HIF-2α DPA C2C12 cells treated with adenovirus overexpressing SIRT1 or empty vector. […] FIG. 21K depicts ARNT mRNA analyzed by qPCR in C2C12 cells infected with ARNT or nontargeting shRNA. […] FIG. 21L depicts mitochondrial DNA content analyzed by qPCR in C2C12 cells infected with ARNT or nontargeting shRNA. […] FIG. 21M depicts ND1, Cytb, COX1 and ATP6 mRNA analyzed by qPCR in C2C12 cells infected with ARNT or nontargeting shRNA. […] Values are expressed as mean±SEM. […]

SIRT1 KO mice = assay: NMN treatment of inducible SIRT1 KO mice; assay type: in vivo, mouse; settings: skeletal muscle of SIRT1 KO versus WT mice
Experimental: Whole body adult-inducible SIRT1 knockout mice were treated with tamoxifen for 5 weeks and the efficiency of deletion in DNA from tail samples was determined by PCR. Animals were then maintained on regular diet for 4 months. For the fasting experiments, mice were fasted for 16 hrs prior to sacrifice. All animal care followed the guidelines and was approved by the Institutional Animal Care and Use Committees (IACUCs) at Harvard
The inducible SIRT1 KO mouse allowed the testing of the involvement of SIRT1 in the effects of NMN in vivo.
C57BL/6J mice of 6, 22, or 30 months of age were obtained from the National Institutes of Aging mouse aging colony. Additionally 22 months old caloric restricted mice were also obtained from the National Institutes of Aging mouse aging colony. EGLN1 KO, SIRT1 KO and SIRT1 OE mice were generated as previously described (Minamishima et al., 2008; Price et al., 2012). […]
RNA from skeletal muscle tissue and C2C12 cells were extracted with RNeasy mini kit (Qiagen) according to the instructions and quantified using the NanoDrop 1000 spectrophotometer (Thermo Scientific). cDNA was synthesized with the iSCRIP cDNA synthesis kit (BioRad) using 600 ng of RNA. Quantitative RT-PCR reactions were performed using 1 μM of primers and LightCycler® 480 SYBR Green Master (Roche) on an LightCycler® 480 detection system (Roche). […]

Structure (SMILES)	effect on NAD+ mediated increases in mitochondrial-encoded genes (PGC-1α/β KO cells)	ability of NMN to induce mitochondrially-encoded genes (SIRT1 KO mice; qPCR)	ability of NMN to improve mitochondrial function (SIRT1 KO mice; mitochondrial membrane potential (FIG. 10I))
COC(=O)CNC(=O)C(=O)OC [DMOG, dimethyloxaloylglycine]	inhibited	–	–
NC(=O)c1ccc[n+]([C@@H]2O[C@H](COP(=O)([O-])O)[C@@H](O)[C@H]2O)c1 [NMN, nicotinamide mononucleotide]	–	lost in animals lacking SIRT1	lost in animals lacking SIRT1
